Laboratory results published in PMC6582486, “Stapled EGFR peptide reduces inflammatory breast cancer and inhibits additional HER-driven models of cancer” (Journal of Translational Medicine, 2019).
Where two headings read alike, the source gives them in different places. Where a SMILES comes first, the peptide text is derived from it. Bridges are numbered along the chain shown (N, C = ends). [ ]: non-standard residue; d: D form. R8 = C=CCCCCCC[C@@](C)(N)C(=O)O; S5 = C=CCCC[C@](C)(N)C(=O)O

Columns and labels:
[1] = test system: EGFR T790M mutated H1975 lung adenocarcinoma cells; assay: Cell viability assay (MTT), H1975; assay type: cell-based; conditions: H1975 (HER1 T790M), 10 µM, 72 h
Experimental: 1000–3000 cells were plated in 96-well plates (Falcon; Corning, NY) and allowed to adhere for 24–48 h prior to therapeutic introduction. Compounds were added and incubated on cells for 3 days in serum-containing media, followed by 2 h treatment with MTT (Sigma M5655) with the resulting formazan solubilized in DMSO. Absorbance was read at 540 nm by plate reader (uQuant, Bio-Tek Instruments). P-values were calculated from a one-way ANOVA.
Fig. 3 SAH5-EJ1 inhibits growth and prolongs survival in PDX models of lung cancer. a, b Cell viability assays performed in A549 or EGFR T790M mutated H1975 lung adenocarcinoma cells over 3 days comparing treatment with Sapitinib (blue lines) to SAH5-EJ1 (red lines). Solid lines represent 24 h; dashed lines represent 72 h. Data shown represent mean ± percent difference of assays performed in quadruplicate. c Reduction in tumor burden in Erlotinib-resistant lung cancer PDX mouse model TM00784 with various doses of intravenous SAH5-EJ1. Control represents water as a vehicle control. *p < 0.05 (Control vs 1 µg/g); **p < 0.01 (Control vs 1 µg/g and vs 10 µg/g). d Kaplan–Meier curve of lung PDX mouse model treated with control (blue line) or either 1 or 10 µg/g SAH5-EJ1 (green line and red line, respectively). Data shown represent mean. N = 6 for all groups

[2] = Plasma concentration after tail-vein injection (toxicokinetics); assay type: in vivo, CD-1 mice; conditions: for level at 0.5 h / level at 1 h: average ± SD, read-out: SAH-EJ1 concentration in plasma, average;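 as to SAH-EJ1 concentration in plasma, average: blood sampled on day 1 after the tail-vein injection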
Experimental: Toxicology was performed by IITRI. The study was conducted in compliance with the US Food and Drug Administration (FDA) good laboratory practice (GLP) Regulations (Code of Federal Regulations Title 21 Part 58) to evaluate the toxicokinetics, local tolerability, immunogenicity, and potential toxicity of SAH5-EJ1 following three times per week intravenous (IV) dosing for 28 days in mice. Male and female CD-1 IGS [Crl:CD1(ICR)] mice (135 per sex) were received from Wilmington, MA-based Charles River Laboratories, Inc.’s Kingston facility (Stone Ridge, NY).

## CC[C@H](C)[C@H](NC(=O)[C@H](Cc1c[nH]cn1)NC(=O)[C@H](CCCNC(=N)N)NC(=O)[C@H](CCCNC(=N)N)NC(=O)[C@H](CCCNC(=N)N)NC(=O)[C@H](CCSC)NC(=O)[C@H](Cc1ccccc1)NC(=O)[C@H](C)NC(=O)[C@H](CCCNC(=N)N)NC(=O)[C@H](C)NC(=O)[C@H](CCC(N)=O)NC(=O)[C@H](CCCNC(=N)N)NC(=O)[C@H](C)NC(=O)[C@H](C)NC(=O)[C@H](C)NC(=O)[C@H](CCCNC(=N)N)NC(=O)[C@H](C)NC(=O)[C@@H](N)Cc1ccc(O)cc1)C(=O)N[C@H](C(=O)N[C@@H](CCCNC(=N)N)C(=O)N[C@@H](CCCCN)C(=O)N[C@@H](CCCNC(=N)N)C(=O)N[C@]1(C)CCCCCCC=CCCC[C@@](C)(C(=O)N[C@@H](CCCNC(=N)N)C(=O)N[C@@H](CCC(=O)O)C(N)=O)NC(=O)[C@H](CCC(N)=O)NC(=O)[C@H](CC(C)C)NC(=O)[C@H](CC(C)C)NC(=O)[C@H](CCCNC(=N)N)NC(=O)[C@H](CCCNC(=N)N)NC(=O)[C@H](CC(C)C)NC1=O)C(C)C [SAH5-EJ1] (H-YARAAARQARAFMRRRHIVRKR[R8]LRRLLQ[S5]RE-NH2; staple 23-30)
[1]
  cell death: 100%
[2]; CD-1, mouse, plasma, female, 10 mg/kg IV, day 1, 0.5 h
  level at 0.5 h: 562 ± 47 ng/mL
[2]; CD-1, mouse, plasma, female, 10 mg/kg IV, day 1, 1 h
  level at 1 h: 542 ± 33 ng/mL
[2]; CD-1, mouse, plasma, female, 15 mg/kg IV, day 1, 0.5 h
  level at 0.5 h: 554 ± 64 ng/mL
[2]; CD-1, mouse, plasma, female, 15 mg/kg IV, day 1, 1 h
  level at 1 h: 569 ± 27 ng/mL
[2]; CD-1, mouse, plasma, male, 10 mg/kg IV, day 1, 0.5 h
  level at 0.5 h: 638 ± 110 ng/mL
[2]; CD-1, mouse, plasma, male, 10 mg/kg IV, day 1, 1 h
  level at 1 h: 665 ± 150 ng/mL
[2]; CD-1 IGS [Crl:CD1(ICR)], mouse, plasma, female, 5 mg/kg IV, day 1, 0.5 h
  level at 0.5 h: 569 ± 19 ng/mL
[2]; CD-1 IGS [Crl:CD1(ICR)], mouse, plasma, female, 5 mg/kg IV, day 1, 1 h
  level at 1 h: 529 ± 30 ng/mL
[2]; CD-1 IGS [Crl:CD1(ICR)], mouse, plasma, male, 5 mg/kg IV, day 1, 0.5 h
  level at 0.5 h: 1020 ± 350 ng/mL
[2]; CD-1 IGS [Crl:CD1(ICR)], mouse, plasma, male, 5 mg/kg IV, day 1, 1 h
  level at 1 h: 576 ± 39 ng/mL
[2]; CD-1 IGS [Crl:CD1(ICR)], mouse, plasma, male, 15 mg/kg IV, day 1, 0.5 h
  level at 0.5 h: 901 ± 160 ng/mL
[2]; CD-1 IGS [Crl:CD1(ICR)], mouse, plasma, male, 15 mg/kg IV, day 1, 1 h
  level at 1 h: 657 ± 37 ng/mL
[2]; CD-1 IGS [Crl:CD1(ICR)], plasma, male, 15 mg/kg IV, day 1, 2 h, mouse 2 of 3, read-out: SAH-EJ1 concentration in plasma
  level at 2 h: 551 ng/mL
[2]; female mice, highest body weight dosage
  time by which peptide was not detectable in plasma: ≤ 2 h
[2]; female, 5 mg/kg IV, day 1, 1 h, mouse 1 of 3
  SAH-EJ1 concentration in plasma: BQL (BQL represents below quantifiable limits (0.5 µg/mL))
[2]; female, 5 mg/kg IV, day 1, 2 h, mouse 1 of 3
  SAH-EJ1 concentration in plasma: BQL (BQL represents below quantifiable limits (0.5 µg/mL))
[2]; female, 5 mg/kg IV, day 1, 2 h, mouse 2 of 3
  SAH-EJ1 concentration in plasma: BQL (BQL represents below quantifiable limits (0.5 µg/mL))
[2]; female, 5 mg/kg IV, day 1, 2 h, mouse 3 of 3
  SAH-EJ1 concentration in plasma: BQL (BQL represents below quantifiable limits (0.5 µg/mL))
[2]; female, 5 mg/kg IV, day 1, 4 h, mouse 1 of 3
  SAH-EJ1 concentration in plasma: BQL (BQL represents below quantifiable limits (0.5 µg/mL))
[2]; female, 5 mg/kg IV, day 1, 4 h, mouse 2 of 3
  SAH-EJ1 concentration in plasma: BQL (BQL represents below quantifiable limits (0.5 µg/mL))
[2]; female, 5 mg/kg IV, day 1, 4 h, mouse 3 of 3
  SAH-EJ1 concentration in plasma: BQL (BQL represents below quantifiable limits (0.5 µg/mL))
[2]; female, 5 mg/kg IV, day 1, 8 h, mouse 1 of 3
  SAH-EJ1 concentration in plasma: BQL (BQL represents below quantifiable limits (0.5 µg/mL))
[2]; female, 5 mg/kg IV, day 1, 8 h, mouse 2 of 3
  SAH-EJ1 concentration in plasma: BQL (BQL represents below quantifiable limits (0.5 µg/mL))
[2]; female, 5 mg/kg IV, day 1, 8 h, mouse 3 of 3
  SAH-EJ1 concentration in plasma: BQL (BQL represents below quantifiable limits (0.5 µg/mL))
[2]; female, 5 mg/kg IV, day 1, 24 h, mouse 1 of 3
  SAH-EJ1 concentration in plasma: BQL (BQL represents below quantifiable limits (0.5 µg/mL))
[2]; female, 5 mg/kg IV, day 1, 24 h, mouse 2 of 3
  SAH-EJ1 concentration in plasma: BQL (BQL represents below quantifiable limits (0.5 µg/mL))
[2]; female, 5 mg/kg IV, day 1, 24 h, mouse 3 of 3
  SAH-EJ1 concentration in plasma: BQL (BQL represents below quantifiable limits (0.5 µg/mL))
[2]; female, 10 mg/kg IV, day 1, 1 h, mouse 2 of 3
  SAH-EJ1 concentration in plasma: BQL (BQL represents below quantifiable limits (0.5 µg/mL))
[2]; female, 10 mg/kg IV, day 1, 2 h, mouse 1 of 3
  SAH-EJ1 concentration in plasma: BQL (BQL represents below quantifiable limits (0.5 µg/mL))
[2]; female, 10 mg/kg IV, day 1, 2 h, mouse 2 of 3
  SAH-EJ1 concentration in plasma: BQL (BQL represents below quantifiable limits (0.5 µg/mL))
[2]; female, 10 mg/kg IV, day 1, 2 h, mouse 3 of 3
  SAH-EJ1 concentration in plasma: BQL (BQL represents below quantifiable limits (0.5 µg/mL))
[2]; female, 10 mg/kg IV, day 1, 4 h, mouse 1 of 3
  SAH-EJ1 concentration in plasma: BQL (BQL represents below quantifiable limits (0.5 µg/mL))
[2]; female, 10 mg/kg IV, day 1, 4 h, mouse 2 of 3
  SAH-EJ1 concentration in plasma: BQL (BQL represents below quantifiable limits (0.5 µg/mL))
[2]; female, 10 mg/kg IV, day 1, 4 h, mouse 3 of 3
  SAH-EJ1 concentration in plasma: BQL (BQL represents below quantifiable limits (0.5 µg/mL))
[2]; female, 10 mg/kg IV, day 1, 8 h, mouse 1 of 3
  SAH-EJ1 concentration in plasma: BQL (BQL represents below quantifiable limits (0.5 µg/mL))
[2]; female, 10 mg/kg IV, day 1, 8 h, mouse 2 of 3
  SAH-EJ1 concentration in plasma: BQL (BQL represents below quantifiable limits (0.5 µg/mL))
[2]; female, 10 mg/kg IV, day 1, 8 h, mouse 3 of 3
  SAH-EJ1 concentration in plasma: BQL (BQL represents below quantifiable limits (0.5 µg/mL))
[2]; female, 10 mg/kg IV, day 1, 24 h, mouse 1 of 3
  SAH-EJ1 concentration in plasma: BQL (BQL represents below quantifiable limits (0.5 µg/mL))
[2]; female, 10 mg/kg IV, day 1, 24 h, mouse 2 of 3
  SAH-EJ1 concentration in plasma: BQL (BQL represents below quantifiable limits (0.5 µg/mL))
[2]; female, 10 mg/kg IV, day 1, 24 h, mouse 3 of 3
  SAH-EJ1 concentration in plasma: BQL (BQL represents below quantifiable limits (0.5 µg/mL))
[2]; female, 15 mg/kg IV, day 1, 0.5 h, mouse 3 of 3
  SAH-EJ1 concentration in plasma: BQL (BQL represents below quantifiable limits (0.5 µg/mL))
[2]; female, 15 mg/kg IV, day 1, 1 h, mouse 2 of 3
  SAH-EJ1 concentration in plasma: BQL (BQL represents below quantifiable limits (0.5 µg/mL))
[2]; female, 15 mg/kg IV, day 1, 2 h, mouse 1 of 3
  SAH-EJ1 concentration in plasma: BQL (BQL represents below quantifiable limits (0.5 µg/mL))
[2]; female, 15 mg/kg IV, day 1, 2 h, mouse 2 of 3
  SAH-EJ1 concentration in plasma: BQL (BQL represents below quantifiable limits (0.5 µg/mL))
[2]; female, 15 mg/kg IV, day 1, 2 h, mouse 3 of 3
  SAH-EJ1 concentration in plasma: BQL (BQL represents below quantifiable limits (0.5 µg/mL))
